Laboratory results: patent US20240368145A1, “METHODS FOR TREATING CANCER” (IMMUNIC AG, priority 2021, published 2024)

Tests used:
Assay type in all cases: cell-based
IFNγ = test: Cytokine assay, human PBMC stimulated with PHA: IFNγ; details: PHA-activated, 48 hours, read-out: IFNγ inhibition (IC50 range)
Experimental: (§1) Peripheral blood mononuclear cells (PBMC) from healthy human donors were purified using Accuspin™ System-Histopaque-1077 (Sigma) according to the protocol recommended by the manufacturer. Purified PBMC were then washed twice with phosphate-buffered saline (PBS) and resuspended in RPMI1640 culture medium supplemented with 10% dialyzed heat inactivated fetal calf serum, 1.5 mM L-glutamine, 100 U penicillin/mL and […] streptomycin/mL (all from PAN Biotech, Aidenbach, Germany). For stimulation, PBMC were seeded at 1×10^5 cells/well, activated with 2 gg/mL phytohaemagglutinin (PHA, Sigma) and incubated with the test compounds for 48 hours. IL-17A, IL-17F and INFγ were then determined in the culture supernatant using a Luminex BioPlex system, following the manufacturer's instructions (BioRad, Munich, Germany). To determine the IC50, compounds were titrated semilogarithmically.
(§2) Cytokines were determined in the aforementioned culture supernatant using the following methods: IL-17A was measured using the human homodimer IL-17A ELISA Ready Set Go Kit from cBioscience (Frankfurt, Germany); IL-17F using the human IL-17F ELI-Pair from Holzel Diagnostica GmbH (K51n, Germany); and IFNγ using the OptEIA human IFN-g ELISA from BD Bioscience (Heidelberg, Germany), all following the manufacturer's instructions.

IL-17A = test: Cytokine assay, human PBMC stimulated with PHA: IL-17A; details: PHA-activated, 48 hours, read-out: IL-17A inhibition (IC50 range)
Experimental: as §1, §2

NKX3.1 mRNA = test: Expression of AR target genes (qRT-PCR) in 22Rv1: NKX3.1; details: Homo sapiens; 22Rv1, 1 μM, 48h; relative to vehicle control (DMSO)
Experimental: (§3) The prostate cancer cell line 22Rv1 was treated for 48h with 1 μM Example compound 1, 1/1, 2/1, 2/2, 2/3, 2/4, 2/5, 2/6, 2/7, 2/8, 2/9 and 2/10 and reference compounds SR2211 and XY018. RNA was extracted using the RNA isolation kit XS (Macherey-Nagel) and following the manufacture's manual. RNA quantity was measured with the Nanodrop before reverse transcription using Superscript II (Invitrogen #100004925). For the quantitative real-time PCR with SYBR-Green (Qiagen #204074), the following primers were used:
(§4) qRT-PCR was performed using SYBR-Green (Qiagen #204074) reagents in a PCR cycler (Gorbett Research) Rotor Gene RG3000 with the following program: denaturation for 5′ at 95° C.; 40 cycles of 20″ at 95° C. and 15″ at 60° C.″ and at the end of the last cycle, the melting temperature of the products was determined by gradually increasing from 60° C. to 99° C. CT values from all samples were normalized to reference (housekeeping) genes using the mean CT value of the GAPDH and YWHAZ (reference genes). Next the values are put relative to the untreated control (vehicle/DMSO).

KLK2 mRNA = test: Expression of AR target genes (qRT-PCR) in 22Rv1: KLK2; details: 22Rv1, 1 μM; for KLK2 mRNA level expression: 48 h; for mrna remaining at 1 µM: Homo sapiens, 48h, relative to vehicle control (DMSO)
Experimental: as §3, §4

IL-17F = test: Cytokine assay, human PBMC stimulated with PHA: IL-17F; details: PHA-activated, 48 hours, read-out: IL-17F inhibition (IC50 range)
Experimental: as §1, §2

[1] = system: full length AR (AR-FL) mRNA; test: Androgen receptor RNA level expression (qRT-PCR) in 22Rv1: AR-FL; details: 22Rv1, 1 μM, 48 h; for mrna remaining at 1 µM: Homo sapiens, normalized to untreated control (vehicle/DMSO)
Experimental: (§5) The prostate cancer cell line 22Rv1 was treated for 48 h with 1 μM Example compound 1, 1/1, 1/2, 2/1, 2/2, 2/3, 2/4, 2/5, 2/6, 2/7, 2/8, 2/9 and 2/10 and the reference compounds SR2211 and XY018 (Nat. Med. 2016; 22:488). RNA was extracted using the RNA isolation kit XS (Macherey-Nagel) and following the manufacture's manual. RNA quantity was measured with the Nanodrop before reverse transcription using Superscript II (Invitrogen #100004925). For the quantitative real-time PCR with SYBR-Green (Qiagen #204074), the following primers were used: AR forward-ACATCAAGGAACTCGATCGTATCATTGC and reverse-TTGGGCACTTGCACAGAGAT, AR-V7: forward-CCATCTTGTCGTCTTCGGAAATGTTATGAAGC and reverse-TTTGAATGAGGCAAGTCAGCCTTTCTT. The qRT-PCR proceeded as follows: denaturation for 5 min 95° C.; 40 cycles of “20 sec at 95° C. and 15 sec at 60° C.” and at the end of the last cycle, the melting temperature of the products was determined by gradually increasing it from 60° C. to 99° C. CT values from all samples were normalized to two different reference (housekeeping) genes using the mean CT value of the GAPDH and YWHAZ (reference genes). Next the values are normalized to the untreated control (vehicle/DMSO).

FKBP5 mRNA = test: Expression of AR target genes (qRT-PCR) in 22Rv1: FKBP5; details: Homo sapiens; 22Rv1, 1 μM, 48h; relative to vehicle control (DMSO)
Experimental: as §3, §4

AR-V7 mRNA = test: Androgen receptor RNA level expression (qRT-PCR) in 22Rv1: AR-V7; details: 22Rv1, 1 μM, 48 h; for mrna remaining at 1 µM: Homo sapiens, normalized to untreated control (vehicle/DMSO)
Experimental: as §5

RORγt = biological target: T1, RORγt (Homo sapiens, UniProt P51449); test: RORγt inhibition, Indigo Biosciences Human RAR-related Orphan Receptor, Gamma Reporter Assay System; details: luciferase reporter cells, 22-24 h incubation; read-out: IC50 range, RORγt assay
T1 sequence (P51449 269-518 limits assumed): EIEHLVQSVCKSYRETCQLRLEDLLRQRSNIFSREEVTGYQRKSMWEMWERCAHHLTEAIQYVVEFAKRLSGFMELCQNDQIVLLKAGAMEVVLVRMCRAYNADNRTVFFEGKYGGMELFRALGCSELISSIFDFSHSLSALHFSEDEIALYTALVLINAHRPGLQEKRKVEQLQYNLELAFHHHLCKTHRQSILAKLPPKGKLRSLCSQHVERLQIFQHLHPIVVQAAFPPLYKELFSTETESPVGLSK
Experimental: The in vitro inhibition of RORγt was measured using Indigo Biosciences Human RAR-related Orphan Receptor, Gamma Reporter Assay System (Product #11304001-32) as described in the technical manual. In brief, 200 μL of Reporter Cells is dispensed into wells of the assay plate and preincubated for 4-6 h. Following the pre-incubation period, culture media are discarded and 200 μL/well of the prepared 1×-concentration treatment media are added. Following 22-24 h incubation, treatment media are discarded and Luciferase Detection Reagent is added. The intensity of light emission (in units of ‘Relative Light Units’; RLU) from each assay well is quantified using a plate-reading luminometer. Average values of RLU were determined for each treatment concentration. Non-linear regression analyses were performed and IC50 values determined using GraphPad Prism software. Provided inverse-agonists ursolic acid served as positive control.

[2] = system: prostate cancer cell line VCaP; test: Oncolead sulforhodamin B growth inhibition, VCaP; details: Homo sapiens, VCaP; sulforhodamin B assay; 72 and 120 h treatment; read-out: GI50 range VCAP
Experimental: (§6) Cell growth was assessed by measuring protein content using sulforhodamin B. Growth inhibition was calculated by (TCMD−T0)/TNCT72h−T0)*100% with TCMD is the tumor growth at 72 h with the respective compound concentration. To is the protein content of the cell line before treatment and TNCT72h is the tumor growth of the DMSO control.

[3] = system: prostate cancer cell line DU145; test: Oncolead sulforhodamin B growth inhibition, DU145; details: Homo sapiens, DU-145; sulforhodamin B assay; 72 and 120 h treatment; read-out: GI50 range DU145
Experimental: as §6

[4] = system: prostate cancer cell line 22RV1; test: Oncolead sulforhodamin B growth inhibition, 22RV1; details: Homo sapiens, sulforhodamin B assay, 72 and 120 h treatment, read-out: GI50 range 22RV1
Experimental: as §6

[5] = system: prostate cancer cell line LNCAP; test: Oncolead sulforhodamin B growth inhibition, LNCAP; details: Homo sapiens, sulforhodamin B assay, 72 and 120 h treatment, read-out: GI50 range LNCAP
Experimental: as §6

[6] = system: prostate cancer cell line PC3; test: Oncolead sulforhodamin B growth inhibition, PC3; details: sulforhodamin B assay; 72 and 120 h treatment; read-out: GI50 range PC3
Experimental: as §6

Compound	IC50 (IFNγ) [nM]	IC50 (IL-17A) [nM]	mrna remaining at 1 µM (NKX3.1 mRNA) [%]	KLK2 mRNA level expression (KLK2 mRNA)	mrna remaining at 1 µM (KLK2 mRNA) [%]	IC50 (IL-17F) [nM]	full length AR (AR-FL) mRNA expression [1]	mrna remaining at 1 µM [1] [%]	mrna remaining at 1 µM (FKBP5 mRNA) [%]	AR-V7 mRNA expression (AR-V7 mRNA)	mrna remaining at 1 µM (AR-V7 mRNA) [%]	IC50 (RORγt) [nM]	GI50 [2] [nM]	GI50 [3] [nM]	GI50 [4] [nM]	GI50 [5] [nM]	GI50 [6] [nM]
C[C@H](O)Cn1ncc(-c2onc(-c3cccc(C(=O)N4CCCC4)c3Cl)c2-c2ccncn2)c1C(F)(F)F [2/3]	25 to 100	25 to 100	35.7	strong inhibition	41.1	25 to 100	strong reduction	43.4	24.5	strong reduction	25.5						
C[C@]1(O)C[C@@H](n2ncc(-c3onc(-c4c(F)cccc4Cl)c3-c3ccncn3)c2C(F)(F)F)C1 [2/4]	< 25	25 to 100	35.9	strong inhibition	42.6	< 25	strong reduction	43.5	29.8	strong reduction	25.4						
CC(C)(O)CCn1ncc(-c2onc(-c3cccc(OCCN4CCOCC4)c3Cl)c2-c2ncccn2)c1C(F)(F)F [2/7]	< 25	25 to 100	30.5	strong inhibition	43.6	< 25	strong reduction	42.5	27.5	strong reduction	22.8	100 to 1000					
COc1cccc(-c2noc(-c3cnn([C@H]4C[C@@](C)(O)C4)c3C(F)(F)F)c2COC2CC2)c1Cl [2/9]	< 25	< 25	48.2		41.2	< 25	strong reduction	49.9	31.5	strong reduction	29.3						
CCOC(=O)c1c(-c2cccc(OC)c2Cl)noc1-c1cnn(CCC(C)(C)O)c1C(F)(F)F [2/10]	< 25	< 25	32.2	strong inhibition	37.9	< 25	strong reduction	53.1	27.7	strong reduction	22.7						
CC(C)(O)CCn1ncc(-c2onc(-c3c(F)cccc3Cl)c2-c2ncccn2)c1C(F)F [Example 1/2, 4-(4-(3-(2-Chloro-6-fluorophenyl)-4-(pyrimidin-2-yl)isoxazol-5-yl)-5-(difluoromethyl)-1H-pyrazol-1-yl)-2-methylbutan-2-ol]							strong reduction	52.4		strong reduction	50.9	10 to 100					
Fc1cccc(Cl)c1-c1noc(-c2cnn(-c3cccc(Cl)c3)c2C(F)(F)F)c1COC1CC1 [Example 2, 3-(2-Chloro-6-fluorophenyl)-5-(1-(3-chlorophenyl)-5-(trifluoromethyl)-1H-pyrazol-4-yl)-4-(cyclopropoxymethyl)isoxazole]												< 10					
C[C@H](O)Cn1ncc(-c2onc(-c3c(F)cccc3Cl)c2-c2nccs2)c1C(F)(F)F [Example 2/1]	< 25	< 25	39.9		56.9	< 25	strong reduction	42.4	34.4	strong reduction	22.8						
CNC(=O)c1ccc(N2C(=S)N(c3ccc(C#N)c(C(F)(F)F)c3)C(=O)C2(C)C)cc1F [enzalutamide, reference compound]													100 to 5000	≥ 5000	≥ 5000	100 to 5000	≥ 5000
CC(=O)O[C@H]1C(=O)[C@@]2(C)[C@H]([C@H](OC(=O)c3ccccc3)[C@]3(O)C[C@H](OC(=O)[C@H](O)[C@@H](NC(=O)c4ccccc4)c4ccccc4)C(C)=C1C3(C)C)[C@]1(OC(C)=O)CO[C@@H]1C[C@@H]2O [paclitaxel, reference compound]													< 25	< 25	< 25	< 25	< 25
